In patent publication US9187472B2 (AbbVie Inc., priority 2012, dated 2015):

Legend:
PC3 cells = assay: NAMPT Cell Proliferation Assay; format: cell-based; conditions: Homo sapiens, PC-3, 120 h, 5 days incubation, cell viability by Cell Titer Glo
Procedure, shortened: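 Following overnight attachment in RPMI with 10% heat-inactivated FBS, PC3 cells at 500 per well receive compounds spanning 10 μM down to 1×10^−5 μM. Growth is assessed by luminescent viability read after 5 days.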

[1] = molecular target: NAMPT (human, recombinant, C-terminally His-tagged) (Homo sapiens, UniProt P43490); assay: Time-Resolved Fluorescence Resonance Energy Transfer (TR-FRET) Binding Assay of NAMPT; conditions: without substrates; 6.8 nM NAMPT, 200 nM probe, 3 hours equilibration
Procedure, shortened: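 A TR-FRET probe-displacement assay used 6.8 nM His-tagged recombinant human NAMPT, 200 nM Oregon Green 488-labelled nicotinamide-competitive probe and 1 nM Tb-anti-His antibody. Buffer was HEPES pH 7.5 with NaCl, MgCl2, DTT and glycerol, plus 2% DMSO, equilibrated 3 h at room temperature. Em520/Em495 ratios, normalized to controls, gave IC50 by four-parameter logistic fit.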

NAMPT = NAMPT (Homo sapiens, UniProt P43490); assay: TR-FRET Binding Assay of NAMPT with PRPP; conditions: with 200 μM PRPP and 2.5 mM ATP; 2 nM NAMPT, 2 nM probe, 16 hours equilibration
Procedure, shortened: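 Human NAMPT (2 nM) with 2 nM probe and 1 nM Tb-anti-His antibody, plus 200 μM PRPP and 2.5 mM ATP, 2% DMSO. TR-FRET read after 16 h equilibration, permitting possible enzymatic modification of test compounds; data processing as for the substrate-free format.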

Chain of NAMPT (P43490 whole entry): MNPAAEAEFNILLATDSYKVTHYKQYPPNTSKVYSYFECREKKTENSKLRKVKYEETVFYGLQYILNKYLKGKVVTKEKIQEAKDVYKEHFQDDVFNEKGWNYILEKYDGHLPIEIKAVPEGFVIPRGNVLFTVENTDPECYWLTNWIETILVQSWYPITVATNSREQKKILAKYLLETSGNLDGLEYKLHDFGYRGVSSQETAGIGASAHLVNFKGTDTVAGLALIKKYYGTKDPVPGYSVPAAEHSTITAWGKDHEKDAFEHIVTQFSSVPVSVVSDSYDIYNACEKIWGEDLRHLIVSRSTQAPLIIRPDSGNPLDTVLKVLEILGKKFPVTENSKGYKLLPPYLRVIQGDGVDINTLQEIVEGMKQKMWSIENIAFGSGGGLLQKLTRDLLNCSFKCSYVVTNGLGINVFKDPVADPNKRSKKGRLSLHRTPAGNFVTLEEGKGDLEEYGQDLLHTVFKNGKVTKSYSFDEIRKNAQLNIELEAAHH
Chain of NAMPT (human, recombinant, C-terminally His-tagged) (P43490 whole entry): as above

Structure (SMILES)	IC50 (PC3 cells) [nM]	IC50 [1] [nM]	IC50 (NAMPT) [nM]
CC(C)(C)OC(=O)N1CC[C@@H](Oc2ccc(C(=O)NCc3ccn4ccnc4c3)cc2)C1 [Example 436, tert-butyl (3R)-3-{4-[(imidazo[1,2-a]pyridin-7-ylmethyl)carbamoyl]phenoxy}pyrrolidine-1-carboxylate]	762	1590	0.416
O=C(NCc1ccn2ccnc2c1)c1ccc(C2CCN(C(=O)c3ccccc3)CC2)cc1 [Example 437, 4-(1-benzoylpiperidin-4-yl)-N-(imidazo[1,2-a]pyridin-7-ylmethyl)benzamide]	7.02	29.1	0.169
O=C(NCc1ccn2ccnc2c1)Nc1ccc(C2=CCN(C(=O)c3ccccc3)CC2)cc1F [Example 438, 1-[4-(1-benzoyl-1,2,3,6-tetrahydropyridin-4-yl)-2-fluorophenyl]-3-(imidazo[1,2-a]pyridin-7-ylmethyl)urea]	42.5	145	0.427
O=C(NCc1ccn2ccnc2c1)Nc1ccc(C2=CCN(C(=O)CC3CCOCC3)CC2)cc1F [Example 439, 1-{2-fluoro-4-[1-(tetrahydro-2H-pyran-4-ylacetyl)-1,2,3,6-tetrahydropyridin-4-yl]phenyl}-3-(imidazo[1,2-a]pyridin-7-ylmethyl)urea]	37.5	453	0.641
O=C(NCc1ccn2ccnc2c1)c1ccc(C2CCN(C(=O)C3CCC(F)(F)CC3)CC2)cc1 [Example 441, 4-{1-[(4,4-difluorocyclohexyl)carbonyl]piperidin-4-yl}-N-(imidazo[1,2-a]pyridin-7-ylmethyl)benzamide]	7.2	338	0.324
CC(C)C(=O)N1CCC(Oc2ccc(NC(=O)NCc3ccn4ccnc4c3)cc2)CC1 [Example 442, 1-(imidazo[1,2-a]pyridin-7-ylmethyl)-3-(4-{[1-(2-methylpropanoyl)piperidin-4-yl]oxy}phenyl)urea]	70.7	301	0.2
CC[C@H](C)C(=O)N1CCC(Oc2ccc(NC(=O)NCc3ccn4ccnc4c3)cc2)CC1 [Example 443, 1-(imidazo[1,2-a]pyridin-7-ylmethyl)-3-[4-({1-[(2S)-2-methylbutanoyl]piperidin-4-yl}oxy)phenyl]urea]	8.96	138	0.274
O=C(NCc1ccn2ccnc2c1)Nc1ccc(OC2CCN(C(=O)CC3CC3)CC2)cc1 [Example 444, 1-(4-{[1-(cyclopropylacetyl)piperidin-4-yl]oxy}phenyl)-3-(imidazo[1,2-a]pyridin-7-ylmethyl)urea]	69.9	156	0.244
O=C(NCc1ccn2ccnc2c1)Nc1ccc(OC2CCN(C(=O)c3ccccc3)CC2)cc1 [Example 445, 1-{4-[(1-benzoylpiperidin-4-yl)oxy]phenyl}-3-(imidazo[1,2-a]pyridin-7-ylmethyl)urea]	22.9	110	0.212
CC(C)OCC(=O)N1CCC(Oc2ccc(NC(=O)NCc3ccn4ccnc4c3)cc2)CC1 [Example 446, 1-(imidazo[1,2-a]pyridin-7-ylmethyl)-3-[4-({1-[(propan-2-yloxy)acetyl]piperidin-4-yl}oxy)phenyl]urea]	61.2	388	0.253
CC(C)(O)C(=O)N1CCC(Oc2ccc(NC(=O)NCc3ccn4ccnc4c3)cc2)CC1 [Example 447, 1-(4-{[1-(2-hydroxy-2-methylpropanoyl)piperidin-4-yl]oxy}phenyl)-3-(imidazo[1,2-a]pyridin-7-ylmethyl)urea]	12.5	261	0.232
O=C(NCc1ccn2ccnc2c1)Nc1ccc(OC2CCN(C(=O)[C@H]3CCCO3)CC2)cc1 [Example 448, 1-(imidazo[1,2-a]pyridin-7-ylmethyl)-3-[4-({1-[(2R)-tetrahydrofuran-2-ylcarbonyl]piperidin-4-yl}oxy)phenyl]urea]	67.8	175	0.176
O=C(NCc1ccn2ccnc2c1)Nc1ccc(OC2CCN(C(=O)[C@@H]3CCCO3)CC2)cc1 [Example 449, 1-(imidazo[1,2-a]pyridin-7-ylmethyl)-3-[4-({1-[(2S)-tetrahydrofuran-2-ylcarbonyl]piperidin-4-yl}oxy)phenyl]urea]	23.6	256	0.169
O=C(NCc1ccn2ccnc2c1)Nc1ccc(OC2CCN(C(=O)C3CCOCC3)CC2)cc1 [Example 450, 1-(imidazo[1,2-a]pyridin-7-ylmethyl)-3-(4-{[1-(tetrahydro-2H-pyran-4-ylcarbonyl)piperidin-4-yl]oxy}phenyl)urea]	70.1	422	0.244
O=C(NCc1ccn2ccnc2c1)Nc1ccc(OC2CCN(C(=O)CC3CCOCC3)CC2)cc1 [Example 451, 1-(imidazo[1,2-a]pyridin-7-ylmethyl)-3-(4-{[1-(tetrahydro-2H-pyran-4-ylacetyl)piperidin-4-yl]oxy}phenyl)urea]	17.3	400	0.373
CC(C)C(=O)N1CC(c2ccc(NC(=O)NCc3ccn4ccnc4c3)cc2)C1 [Example 452, 1-(imidazo[1,2-a]pyridin-7-ylmethyl)-3-{4-[1-(2-methylpropanoyl)azetidin-3-yl]phenyl}urea]	59.2	293	0.285
CC[C@H](C)C(=O)N1CC(c2ccc(NC(=O)NCc3ccn4ccnc4c3)cc2)C1 [Example 453, 1-(imidazo[1,2-a]pyridin-7-ylmethyl)-3-(4-{1-[(2S)-2-methylbutanoyl]azetidin-3-yl}phenyl)urea]	9.21	152	0.258
O=C(NCc1ccn2ccnc2c1)Nc1ccc(C2CN(C(=O)CC3CC3)C2)cc1 [Example 454, 1-{4-[1-(cyclopropylacetyl)azetidin-3-yl]phenyl}-3-(imidazo[1,2-a]pyridin-7-ylmethyl)urea]	42.2	405	0.34
O=C(NCc1ccn2ccnc2c1)Nc1ccc(C2CN(C(=O)c3ccccc3)C2)cc1 [Example 455, 1-[4-(1-benzoylazetidin-3-yl)phenyl]-3-(imidazo[1,2-a]pyridin-7-ylmethyl)urea]	3.5	16.7	0.194
CC(C)OCC(=O)N1CC(c2ccc(NC(=O)NCc3ccn4ccnc4c3)cc2)C1 [Example 456, 1-(imidazo[1,2-a]pyridin-7-ylmethyl)-3-(4-{1-[(propan-2-yloxy)acetyl]azetidin-3-yl}phenyl)urea]	49.6	389	0.169
CC(C)(O)C(=O)N1CC(c2ccc(NC(=O)NCc3ccn4ccnc4c3)cc2)C1 [Example 457, 1-{4-[1-(2-hydroxy-2-methylpropanoyl)azetidin-3-yl]phenyl}-3-(imidazo[1,2-a]pyridin-7-ylmethyl)urea]	194	1140	0.487
O=C(NCc1ccn2ccnc2c1)Nc1ccc(C2CN(C(=O)[C@H]3CCCO3)C2)cc1 [Example 458, 1-(imidazo[1,2-a]pyridin-7-ylmethyl)-3-(4-{1-[(2R)-tetrahydrofuran-2-ylcarbonyl]azetidin-3-yl}phenyl)urea]	183	940	0.382
O=C(NCc1ccn2ccnc2c1)Nc1ccc(C2CN(C(=O)[C@@H]3CCCO3)C2)cc1 [Example 459]	77.7	381	0.41
O=C(NCc1ccn2ccnc2c1)Nc1ccc(C2CN(C(=O)C3CCOCC3)C2)cc1 [Example 460, 1-(imidazo[1,2-a]pyridin-7-ylmethyl)-3-{4-[1-(tetrahydro-2H-pyran-4-ylcarbonyl)azetidin-3-yl]phenyl}urea]	50.9	569	0.307
O=C(NCc1ccn2ccnc2c1)Nc1ccc(C2CN(C(=O)CC3CCOCC3)C2)cc1 [Example 461, 1-(imidazo[1,2-a]pyridin-7-ylmethyl)-3-{4-[1-(tetrahydro-2H-pyran-4-ylacetyl)azetidin-3-yl]phenyl}urea]	31.4	459	0.169
O=C(CC1CCCC1)Nc1ccc(C(=O)NCc2ccc3nccn3c2)c(F)c1 [Example 462, 4-[(cyclopentylacetyl)amino]-2-fluoro-N-(imidazo[1,2-a]pyridin-6-ylmethyl)benzamide]	7.43	59.1	0.266
O=C(CC1CCCC1)Nc1ccc(C(=O)NCc2ccn3ccnc3c2)c(F)c1 [Example 463, 4-[(cyclopentylacetyl)amino]-2-fluoro-N-(imidazo[1,2-a]pyridin-7-ylmethyl)benzamide]	234	314	0.529
O=C(NCc1ccn2ccnc2c1)c1ccc(-c2ccc(N3CCOCC3)nc2)s1 [Example 464, N-(imidazo[1,2-a]pyridin-7-ylmethyl)-5-[6-(morpholin-4-yl)pyridin-3-yl]thiophene-2-carboxamide]	6.79	63.4	0.169
